Test results published in US20250352534A1 (Tesaro, Inc., priority 2022, published 2025).
In brackets after ≈: the same amount, converted by molar mass. Like-named read-outs stand apart in the source and are kept apart here.

Experiments:
[1] = test system: PARP activity; details: read-out: inhibition of PARP activity EC50; whole cell assay; cited from earlier work
[2] = Phase 0 Arm A tumor pharmacokinetics (LC-MS/MS) in newly-diagnosed GBM patients
Description: (§2) The final presurgical dose will be administered 3-5 hours or 8-10 hours before tumor resection. Assignment to time-cohorts will be random. […] In each of the two time-cohorts, tumor PK and PD analyses will be performed at the Ivy Brain Tumor Center.
(§3) For PK analysis, blood, CSF, and brain tumor tissue samples (gadolinium enhancing and non-enhancing) will be collected intraoperatively. Additional blood samples will be obtained on Day 1 pre-dose and on Day 4 (the day of the surgery) at pre-dosing (trough level), 0.5, 1, 2, 4, 6, 9-, 12-, 24-, and 48-hours post-dose.
(§4) Tumor-to-plasma ratios will be calculated. All assays and analyses will be developed, validated, and performed at Ivy Brain Tumor Center.
(§5) Tumor tissue (enhancing and nonenhancing regions), cerebrospinal fluid (CSF), and plasma were collected. […] Evidence of PARP inhibition was assessed by 10 Gy ex vivo irradiation of surgical tissue and quantification of PARylation compared to non-irradiated control tissue.
(§6) Tumor tissue (enhancing and non-enhancing regions), cerebrospinal fluid (CSF), and plasma were collected. […] PARP inhibition was assessed by quantification of PAR induction after 10 Gy ex vivo irradiation in surgical tissue compared to non-irradiated control tissue. A PK ‘trigger’ determined eligibility for the therapeutic phase 2 expansion portion of the study.

[3] = brain penetration in mouse brain metastatic tumor model (LC-MS, MALDI IMS); assay type: in vivo, mice; details: for MALDI IMS Brain Section Median, adjusted free concentration / MALDI IMS Brain Section Median, total concentration / Bulk Brain Homogenate Avg, adjusted free concentration / Bulk Brain Homogenate Avg, total concentration / concentration at 2 h: 2 hr post final dose; for Bulk Brain Homogenate Avg, adjusted free concentration / Bulk Brain Homogenate Avg, total concentration: LC-MS; for concentration at 2 h: plasma, po QD 5 days, niraparib 35 mg/kg, olaparib 50 mg/kg, read-out: Terminal Plasma Avg, total concentration
From the text: Female mice (CrTac:NCr-Foxnlnu; 6 w/o) received 2.5E5 luciferase transfected human breast cancer line (MDA 231-BRM2-831) via intracardiac injection. Mice were imaged twice/week using bioluminescence imaging (BLI) to monitor tumor growth. […] Tissue collected between each imaging plane was homogenized for LC-MS bioanalysis.

[4] = in vitro; details: rat, brain homogenate
Description: (§1) At least three days prior to the start of the study, six male rats per group (total 24 rats) received surgically implanted femoral vein and carotid artery catheters for infusion of the test molecule and blood sampling, respectively. Doses were filtered prior to administration and the actual dose administered to the animals was quantified. All PK parameters were calculated based on the actual dose administered to each animal. Animals received an intravenous bolus loading dose followed by a constant intravenous infusion to maintain steady state of drug level. At the end of the infusion, animals were euthanized and brain tissues were collected. Tissue homogenates were prepared in PBS (1:4 w/v). LC-MS/MS method was used to quantitate drug concentrations. Tissue homogenate concentrations were corrected for test compound contained in residual plasma in the tissue. The tissue-to-plasma ratio was calculated by dividing corrected tissue concentration by steady-state plasma concentration. […] Data are reported as fraction unbound (Fu).

[5] = brain penetration in healthy Rhesus macaque monkeys (LC-MS, MALDI IMS); assay type: in vivo; details: for Bulk Brain Homogenate, adjusted free concentration: LC-MS; for Terminal CSF / Terminal Plasma, adjusted free concentration: at necropsy; for Kp uu: male, rhesus monkey, brain homogenate / plasma, oral
Description: Pre-dose blood was collected daily and terminal blood, cerebrospinal fluid (CSF), and brain tissue was collected at necropsy. […] Blood, CSF, and bulk homogenates of brain tissue were analyzed by LC-MS bioanalysis.

[6] = clinical safety, Phase 0 and expansion phase Arm A; details: for tolerability: glioblastoma patients
Description: as §6

[7] = test system: PAR (PARP inhibition); details: 17/22 patients
From the text: For PD analysis, intraoperatively-collected gadolinium-enhancing tumor tissue will be sectioned into 4 similarly-sized tissue portions. Two tissue specimens will be exposed to 10 Gy of IR using a RAD2000 device and two specimens will be sham irradiated (non-irradiated). One pair of sham control and 10 Gy radiated tissue will be fixed in formalin solution for FFPE slides. The other pair will be snap-frozen for PAR ELISA assay.
A ‘functional’ PD assay examining PAR activity in the setting of ex vivo irradiation will serve as a secondary endpoint in this protocol. In the Ivy Center's CLIA-certified PD Core, FFPE embedded tumor tissue from both ex vivo irradiated and non-irradiated to assess changes in PAR, cleaved caspase 3, γH2AX and Ki67 using immunohistochemistry (IHC) assays. Alternatively, ELISA assays to quantify PAR levels will be performed using frozen lysates from the second pair of control and irradiated samples.
Evidence of PARP inhibition was assessed by 10 Gy ex vivo irradiation of surgical tissue and quantification of PARylation compared to non-irradiated control tissue.
PARP inhibition was assessed by quantification of PAR induction after 10 Gy ex vivo irradiation in surgical tissue compared to non-irradiated control tissue.

[8] = test system: MGMT-unmethylated newly-diagnosed glioblastoma
From the text: Participants will continue receiving maintenance treatment until progression of disease, unacceptable toxicity or death, withdrawal of consent, loss to follow-up, or study termination by sponsor.
• 1. […] Expansion: Examine progression-free survival rate measured from time of surgery to date of recurrence.

[9] = clinical; details: human, oral
Description: as §2, §3, §4, §5, §6

[10] = test system: cancer cells with mutant BRCA-1 and BRCA-2; details: read-out: inhibition of proliferation CC50; cited from earlier work
[11] = test system: P-gp (Mdr1-a); assay: in vivo; details: male, rat, brain / plasma, intravenous, P-gp knock-out rat
Description: as §1

[12] = test system: P-gp (P-glycoprotein/Mdr1-a) and BCRP (ABCG2); assay: in vivo
Description: as §1

[13] = test system: BCRP (ABCG2); assay: in vivo; details: male, rat, brain / plasma, intravenous, BCRP knock-out rat
Description: as §1

[14] = test system: P-gp (Mdr1-a) and BCRP (ABCG2); assay: in vivo; details: male, rat, brain / plasma, intravenous; for Kp: Brain:plasma (Kp) ratio; for Kp uu: Unbound brain:plasma ratio (Kp, uu)
Description: as §1

[15] = physchem; details: aqueous buffer
[16] = healthy Rhesus macaque monkeys, five days oral administration
[17] = enhancing tumor tissue / plasma
[18] = non-enhancing tumor tissue / plasma
[19] = Unbound brain:plasma ratio (Kp, uu)

NC(=O)c1cccc2cn(-c3ccc([C@@H]4CCCNC4)cc3)nc12 [niraparib, (3S)-3-[4-{7-(aminocarbonyl)-2H-indazol-2-yl}phenyl]piperidine]
EC50 [1]: 4 nM | mean unbound concentration in Gd-nonenhancing tumor region ([2]; 200 mg, 3-5 hr cohort 1 (n=6)): 250.8 nM | mean unbound concentration in Gd-nonenhancing tumor region ([2]; 300 mg QD 4 days, 3-5 hr cohort (n=8), interim results): 340.9 nM | mean unbound concentration in Gd-nonenhancing tumor region ([2]; 300 mg QD 4 days, 8-12 hr cohort (n=3)): 331.9 nM | mean unbound concentration in Gd-nonenhancing tumor region ([2]; 300 mg, 3-5 hr cohort 1 (n=20)): 366.2 nM | mean unbound concentration in non-enhancing regions ([2]; 300 or 200 mg QD 4 days, 29 patients, further interim results): 258.2 nM | estimated mean Kp,uu,brain, times higher for niraparib compared to olaparib ([3]; BM mice): 5.6 × | MALDI IMS Brain Section Median, adjusted free concentration ([3]; BM mice): 80 | MALDI IMS Brain Section Median, total concentration ([3]; BM mice): 473 | Bulk Brain Homogenate Avg, adjusted free concentration ([3]; BM mice): 91 ng/g | Bulk Brain Homogenate Avg, total concentration ([3]; BM mice): 543 ng/g | MALDI IMS Brain Section Median, adjusted free concentration ([3]; Control mice): 89 | MALDI IMS Brain Section Median, total concentration ([3]; Control mice): 532 | Bulk Brain Homogenate Avg, adjusted free concentration ([3]; Control mice): 111 ng/g | Bulk Brain Homogenate Avg, total concentration ([3]; Control mice): 658 ng/g | estimated mean Kp,uu,brain, times higher for niraparib compared to olaparib ([3]; control mice): 3.0 × | Kp uu at 2 h post final dose ([3]; female, CrTac:NCr-Foxnlnu, mouse, oral, BM mice, from bulk brain homogenate and terminal plasma free concentrations): 0.18 | Kp uu at 2 h ([3]; female, CrTac:NCr-Foxnlnu, mouse, oral, Control mice, from bulk brain homogenate and terminal plasma free concentrations): 0.18 | concentration at 2 h ([3]; female, CrTac:NCr-Foxnlnu, mouse, oral, BM (brain metastases) mice): 2540 ng/mL | concentration at 2 h ([3]; female, CrTac:NCr-Foxnlnu, mouse, oral, Control mice): 3100 ng/mL | distribution in coronal brain sections by MALDI IMS ([3]; mice administered niraparib): consistent concentrations distributed throughout the brain parenchyma with locally higher concentrations detected from tumor regions | fraction unbound [4]: 0.04 | MALDI IMS Brain Section Average, adjusted free concentration ([5]; Monkey 1): (10) ng/g | Pre-Dose Plasma, total concentration ([5]; Monkey 1, Day 1, po daily 5 days, niraparib 6 mg/kg, olaparib 10 mg/kg): BQL | Pre-Dose Plasma, adjusted free concentration ([5]; Monkey 1, Day 2): 10 ng/mL | Pre-Dose Plasma, total concentration ([5]; Monkey 1, Day 2): 28 ng/mL | Pre-Dose Plasma, adjusted free concentration ([5]; Monkey 1, Day 3): 18 ng/mL | Pre-Dose Plasma, total concentration ([5]; Monkey 1, Day 3): 49 ng/mL | Pre-Dose Plasma, adjusted free concentration ([5]; Monkey 1, Day 4): 22 ng/mL | Pre-Dose Plasma, total concentration ([5]; Monkey 1, Day 4): 59 ng/mL | Pre-Dose Plasma, adjusted free concentration ([5]; Monkey 1, Day 5): (26) ng/mL | Pre-Dose Plasma, total concentration ([5]; Monkey 1, Day 5): 72 ng/mL | Bulk Brain Homogenate, adjusted free concentration ([5]; Monkey 1): (14) ng/g | Terminal CSF ([5]; Monkey 1): 9 ng/mL | Terminal Plasma, adjusted free concentration ([5]; Monkey 1): (31) ng/mL | Terminal Plasma, total concentration ([5]; Monkey 1, at necropsy after 5 daily oral doses): 84 ng/mL | MALDI IMS Brain Section Average, adjusted free concentration ([5]; Monkey 2): (25) ng/g | Pre-Dose Plasma, total concentration ([5]; Monkey 2, Day 1, po daily 5 days, niraparib 6 mg/kg, olaparib 10 mg/kg): BQL | Pre-Dose Plasma, adjusted free concentration ([5]; Monkey 2, Day 2): 21 ng/mL | Pre-Dose Plasma, total concentration ([5]; Monkey 2, Day 2): 58 ng/mL | Pre-Dose Plasma, adjusted free concentration ([5]; Monkey 2, Day 3): 32 ng/mL | Pre-Dose Plasma, total concentration ([5]; Monkey 2, Day 3): 87 ng/mL | Pre-Dose Plasma, adjusted free concentration ([5]; Monkey 2, Day 4): 27 ng/mL | Pre-Dose Plasma, total concentration ([5]; Monkey 2, Day 4): 74 ng/mL | Pre-Dose Plasma, adjusted free concentration ([5]; Monkey 2, Day 5): (24) ng/mL | Pre-Dose Plasma, total concentration ([5]; Monkey 2, Day 5): 66 ng/mL | Bulk Brain Homogenate, adjusted free concentration ([5]; Monkey 2): (29) ng/g | Terminal CSF ([5]; Monkey 2): 25 ng/mL | Terminal Plasma, adjusted free concentration ([5]; Monkey 2): (160) ng/mL | Kp,uu,brain, times higher for niraparib compared to olaparib [5, 16]: 15 × | detection and distribution in coronal brain sections by MALDI IMS [5, 16]: consistent concentrations distributed throughout the brain parenchyma | Kp uu ([5]; Monkey 2, from bulk brain homogenate and terminal plasma free concentrations, read-out: Kp, uu Brain/Plasma): 0.16 | Kp uu ([5]; mean of Monkey 1 and 2, read-out: Mean Kp, uu Brain/Plasma): 0.3 | patients with thrombocytopenia related to niraparib ([6]; 6 initial patients enrolled in phase 2, niraparib with concurrent RT): Five of the 6 | patients with Grade 3 treatment-related adverse event (ALT and AST elevation) ([6]; Phase 0, twelve patients, 300 mg QD 4 days): one patient | serious AEs after starting dose lowered to 200 mg ([6]; both phases): no serious AEs were observed thereafter | patients with treatment-related thrombocytopenia ([6]; expansion phase, two patients enrolled): two patients | tolerability [6]: well-tolerated, with low rates of grade 3+ toxicity | tolerability ([6]; listed as Niraparib): generally well-tolerated | thrombocytopenia cases deemed serious and life-threatening ([6]; of the 5 thrombocytopenia cases in phase 2): 3/5 | patients with suppression of PAR levels after ex vivo radiation [7]: 79% | outcome of the 6 patients with ≥6 months follow-up ([8]; MGMT-unmethylated PK-responders, niraparib in addition to radiotherapy): four are in remission and two had a recurrence of tumor | PFS6 ([8]; niraparib with concurrent RT then maintenance, 11 patients, median follow-up 8.1 months): 64% | Kp [9, 17]: 7.89 | Kp uu [9, 17]: 1.8 | Kp [9, 18]: 4.27 | Kp uu [9, 18]: 0.8 | CC50 [10]: 10 to 100 nM | Kp ([11]; Brain:plasma (Kp) ratio): 3.7 | Kp uu [11, 19]: 0.87 | increase of brain tissue concentrations ([12]; BCRP knockout rats vs control): < 2 fold | increase of brain tissue concentrations ([12]; Mdr1-a (P-gp) knockout rats vs control, iv bolus plus infusion, steady state): 9 fold | increase of brain tissue concentrations ([12]; Pgp/BCRP double knockout rats vs control): 14 fold | Kp ([13]; Brain:plasma (Kp) ratio): 0.64 | Kp uu [13, 19]: 0.15 | Kp ([14]; P-gp/BCRP double knock-out rat): 6.3 | Kp ([14]; control rat): 0.47 | Kp uu ([14]; P-gp/BCRP double knock-out rat): 1.5 | Kp uu ([14]; control rat): 0.1 | solubility [15]: 700 to 1100 µg/mL (≈ 2180 to 3430 µM)
